The text below walks through data of patent US20240327425A1, “KRAS G12D INHIBITOR AND USE THEREOF” (SHANGHAI DE NOVO PHARMATECH CO., LTD., priority 2021, published 2024).

By IC50 is commonly meant the concentration that gives 50% inhibition. A high value points to weaker potency in that assay.

Assay [1] concerns the target Human KRAS G12D His-tagged protein (Homo sapiens (Human), UniProt P01116, G12D). Description: KRAS G12D binding assay (TR-FRET). The note with it: GDP 20 nM, GTP-Red. As to the method: The binding ability of the compound to KRAS G12D protein was detected by TR-FRET method, and the inhibitory activity of the compound on KRAS G12D protein was evaluated. Human KRAS G12D His-tagged (Cisbio, 63ADK000CB27PEG) protein was 100-fold diluted with PPI Eu detection buffer (Cisbio, 61DB9RBF), then 5 μL of which was added to a 384-well plate and centrifuged at 2000 rpm for 40 seconds. A 10 mM concentrated stock solution of the test compound was prepared with dimethyl sulfoxide, 3-fold serially diluted, then diluted to make a working solution (0.5% DMSO) with PPI Eu detection buffer, added to a 384-well plate at 5 μL/well, with the control group added with 0.5% dimethyl sulfoxide and the highest concentration of the test compound at 10 μM, and centrifuged at 2000 rpm for 40 seconds. An 80 nM GDP standard working solution (Cisbio, 63ADK000CB27PEG) was prepared with PPI Eu detection buffer and added to a 384-well plate at 5 μL/well, with the final concentration of GDP standard working solution at 20 nM. The plate was centrifuged at 2000 rpm for 40 seconds and reacted at room temperature for 30 minutes. 1×6His Eu cryptate antibody and GTP-Red reagent (Cisbio, 63ADK000CB27PEG) were prepared with PPI Eu detection buffer, mixed in a volume ratio of 1:1, 5 μL of which was then added to a 384-well plate, centrifuged at 2000 rpm for 40 seconds, and incubated at room temperature for 30 minutes. The fluorescence intensity at 620 nm and 665 nm was detected by a microplate reader, and the inhibitory activity of the compound on KRAS G12D protein was obtained by fitting a four-parameter equation.
On the technique in general: In TR-FRET formats the signal depends on donor and acceptor labels being close together.

In assay [2] the test system is phosphorylation level of ERK1/2 in ASPC-1 human pancreatic cancer cells. Description: pERK cell level assay (PHOSPHO-ERK1/2 HTRF kit). Format: cell-based. The following applies: Aspc-1 cells, 4 hours incubation. How it is done: In this experiment, the phosphorylation level of ERK1/2 in AGS human gastric cancer cells or ASPC-1 human pancreatic cancer cells was detected using PHOSPHO-ERK1/2 (THR202/TYR 204) (Cisibo, 64ERKPEH) kit, and the inhibitory effect of the compounds on KRAS G12D was investigated based on the phosphorylation level of ERK1/2.
On day 1, the density of AGS cell (ATCC) suspension was adjusted to 2.1×10^5 cells/mL, then the suspension was spread in a 96-well plate at 95 μL/well so that there were 2×10^4 cells per well, and the cell culture plate was incubated in a 37° C., 5% CO2 incubator for overnight. On day 2, the compound was serially diluted with 100% dimethyl sulfoxide, and then further diluted with a complete culture medium (RPMI-1640+10% FBS+1% PS) to make a working solution of the compound, which was added to a 96-well cell culture plate at 5 μL/well, and incubated in a 37° C., 5% CO2 incubator for 4 hours. After the incubation was completed, the culture medium was discarded, then 1× lysis buffer was added thereto at 50 μL/well, and the plate was shaken at room temperature for 30 minutes. 16 μL of lysis buffer was added to a white 384-well shallow well plate, then 4 μL of pre-formulated antibody mixture was added thereto, and the plate was sealed with microplate sealer and incubated at room temperature for overnight. On day 3, detection was performed on a TECAN M1000 Pro microplate reader using the HTRF setting, and the IC50 value of the compound was calculated.

The subject of assay [3] is ASPC-1 human pancreatic cancer cells. Kind of assay: Cell proliferation assay (Cell Titer-Glo), ASPC-1. Format: cell-based. As to the method: (§1) On day 1, AGS human gastric cancer cells, ASPC-1 human pancreatic cancer cells, or GP2D human colon cancer cells (Nanjing Cobioer Biosciences Co. Ltd.) in the logarithmic growth phase were taken, digested with an appropriate amount of trypsin, formulated into a single cell suspension using RPMI 1640 (Gibco) medium containing 10% fetal bovine serum and 1% penicillin-streptomycin, counted to adjust the cell density, inoculated in a 96-well plate at 95 μL/well so that there were 3000 cells per well, and then the cell culture plate was incubated in a 37° C., 5% CO2 incubator for overnight. On day 2, a 10 mM concentrated stock solution of KRAS G12D inhibitor was 3-fold serially diluted with dimethyl sulfoxide solution, and then diluted with AGS complete culture medium to make a working solution, which was added to a cell culture plate at 5 μL/well so that the compound had the highest concentration of 10 μM and the lowest concentration of 0.0015 μM, and the control group was 0.5% dimethyl sulfoxide. The cell culture plate was briefly centrifuged and then incubated in a CO2 incubator for 72 hours. On day 5, the cell culture plate was taken out, added with Cell Titer-Glo (Promega) detection reagent in each well, incubated in the dark for 10 minutes, and then luminescence was detected using a microplate reader (Tecan, Infinite M1000 Pro). Data were analyzed using Graphpad software, and curve fitting was performed with four-parameter equation and the IC50 value of the inhibitor was calculated.

Assay [4] concerns GP2D human colon cancer cells. Kind of assay: Cell proliferation assay (Cell Titer-Glo), GP2D. The note with it: 72 hours. Format: cell-based. As to the method: as §1
On the technique in general: Cellular ATP, detected with luciferase, serves as a proxy for viable cell number.

Assay [5] has as its system GP2D human colon cancer cells subcutaneous xenograft tumor. Kind of assay: In vivo pharmacodynamic experiment of subcutaneous xenograft tumor model in mice of GP2D human colon cancer cells. The following applies: BALB/c nude mice; for Tumor volume (11 days, mm^3): 11 days (at grouping). How it is done:
Cell culture: GP2D human colon cancer cells were maintained in monolayer culture in DMEM culture medium containing 10% fetal bovine serum in a constant temperature incubator containing 5% CO2 at 37° C. Tumor cells were passaged twice a week. Cells in the exponential growth phase were harvested and counted for inoculation.
Experimental animals: BALB/c nude mice, 6 to 8 weeks, 18 to 22 g, purchased from Jiangsu GemPharmatech Co. Ltd.
Experimental method: GP2D cell line ([…]) was inoculated subcutaneously on the right back of experimental mice. The inoculation volume of each mouse was 0.1 mL. The growth of the tumor was observed regularly. When the tumor grew to about 150 mm^3, the mice were randomly grouped according to the tumor size and body weight, and the drug was administrated according to the administration plan shown in Table 1. The body weight and tumor size were measured twice a week throughout the experiment.
tumor volume (mm^3)=0.5×(tumor long diameter×tumor short diameter^2). Tumor size calculation formula: […]
(In general: In xenograft studies the graft and the host belong to different species.)

Setting [6] is: Homo sapiens, ASPC1, pERK1/2 (THR202/TYR204).
Where [7] appears, read: Homo sapiens, ASPC1, Aspc-1, 72 hours.

Human KRAS G12D His-tagged protein, sequence (P01116-2 other isoform, or with tags, fused parts or gaps G12D): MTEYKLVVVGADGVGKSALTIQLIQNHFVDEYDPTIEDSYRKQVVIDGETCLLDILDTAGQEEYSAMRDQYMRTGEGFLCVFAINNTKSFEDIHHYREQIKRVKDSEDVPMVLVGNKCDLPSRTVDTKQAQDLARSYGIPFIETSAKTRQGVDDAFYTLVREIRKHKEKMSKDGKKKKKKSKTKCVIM

With `Nc1nc2c(-c3c(Cl)c4c5c(nc(OC[C@@]67CCCN6C[C@H](F)C7)nc5c3F)N3C[C@H]5CC[C@H](N5)[C@H]3CO4)cccc2s1` (single isomer, unassigned) [Compound I-12-2], the IC50 in assay [1] came out at 3.01 nM; in assay [2] (setting [6]) it was 8.23 nM.

With `[2H]C1([2H])CC[C@@]2(COc3nc4c5c(c(Cl)c(-c6cccc7sc(N)c(C#N)c67)c(F)c5n3)OC[C@@H]3[C@@H]5CC[C@H](CN43)N5)C[C@@H](F)CN12` (single isomer, unassigned) [Compound I-20-2], the IC50 amounted to 1.89 nM in assay [1] and 6.49 nM in assay [3] (setting [7]).

For the molecule `[2H]C([2H])(Oc1nc2c3c(c(Cl)c(-c4cccc5sc(N)c(C#N)c45)c(F)c3n1)OC[C@@H]1[C@@H]3CC[C@H](CN21)N3)[C@@]12CCCN1C[C@H](F)C2` (single isomer, unassigned) [Compound I-24-2], the IC50 was 1.75 nM in assay [1] and 6.66 nM in assay [3] (setting [7]).

For `[2H]C1([2H])CC[C@@]2(C([2H])([2H])Oc3nc4c5c(c(Cl)c(-c6cccc7sc(N)c(C#N)c67)c(F)c5n3)OC[C@@H]3[C@@H]5CC[C@H](CN43)N5)C[C@@H](F)CN12` (single isomer, unassigned) [Compound I-27-2], the IC50 in assay [1] was found to be 1.4 nM; in assay [4] (Homo sapiens), 0.133 nM.

With `N#Cc1c(N)sc2cccc(-c3c(Cl)c4c5c(nc(OC[C@@]67CCCN6C[C@H](F)C7)nc5c3F)N3C[C@H]5CC[C@H](N5)[C@H]3CO4)c12` [Compound I-7, 2-amino-4-((5aS,6S,9R)-3-chloro-1-fluoro-13-(((2R,7aS)-2-fluorohexahydro-1H-pyrrolizin-7a-yl)methoxy)-5a,6,7,8,9,10-hexahydro-5H-6,9-epiminoazepino[2′,1′:3,4][1,4]oxazepino[5,6,7-de]quinazolin-2-yl)benzo[b]thiophene-3-carbonitrile ditrifluoroacetate], the IC50 in assay [1] was found to be 6.59 nM; in assay [2] (pERK1/2 (THR202/TYR204)) it was 1.59 nM; in assay [3] (Aspc-1, 72 hours) it was 5.53 nM.

Consider `N#Cc1c(N)sc2c(F)ccc(-c3c(Cl)c4c5c(nc(OC[C@@]67CCCN6C[C@H](F)C7)nc5c3F)N3C[C@H]5CC[C@H](N5)[C@H]3CO4)c12` [Compound I-11, 2-amino-4-((5aS,6S,9R)-3-chloro-1-fluoro-13-(((2R,7aS)-2-fluorohexahydro-1H-pyrrolizin-7a-yl)methoxy)-5a,6,7,8,9,10-hexahydro-5H-6,9-epiminoazepino[2′,1′:3,4][1,4]oxazepino[5,6,7-de]quinazolin-2-yl)-7-fluorobenzo[b]thiophene-3-carbonitrile], for which the IC50 was 11.2 nM in assay [1], 1.01 nM in assay [2] (setting [6]), 12.6 nM in assay [3] (setting [7]) and 0.336 nM in assay [4] (Homo sapiens).

As for `N#Cc1c(N)sc2ccc(F)c(-c3c(Cl)c4c5c(nc(OC[C@@]67CCCN6C[C@H](F)C7)nc5c3F)N3C[C@H]5CC[C@H](N5)[C@H]3CO4)c12` [Compound I-14, 2-amino-4-((5aS,6S,9R)-3-chloro-1-fluoro-13-(((2R,7aS)-2-fluorohexahydro-1H-pyrrolizin-7a-yl)methoxy)-5a,6,7,8,9,10-hexahydro-5H-6,9-epiminoazepino[2′,1′:3,4][1,4]oxazepino[5,6,7-de]quinazolin-2-yl)-5-fluorobenzo[b]thiophene-3-carbonitrile ditrifluoroacetate], the 50% inhibitory concentration (IC50) in assay [1] is 8.52 nM; in assay [2] (pERK1/2 (THR202/TYR204)), 1.29 nM; in assay [3] (Aspc-1, 72 hours), 6.76 nM; in assay [4], 0.124 nM.

For `Cc1ccc2sc(N)c(C#N)c2c1-c1c(Cl)c2c3c(nc(OC[C@@]45CCCN4C[C@H](F)C5)nc3c1F)N1C[C@H]3CC[C@H](N3)[C@H]1CO2` [Compound I-21, 2-amino-4-((5aS,6S,9R)-3-chloro-1-fluoro-13-(1-((2R,7aS)-2-fluorohexahydro-1H-pyrrolizin-7a-yl)methoxy)-5a,6,7,8,9,10-hexahydro-5H-6,9-epiminoazepino[2′,1′:3,4][1,4]oxazepino[5,6,7-de]quinazolin-2-yl)-5-methylbenzo[b]thiophene-3-carbonitrile ditrifluoroacetate], the IC50 was 9.76 nM in assay [1] and 16.9 nM in assay [3] (setting [7]).

Consider `N#Cc1c(N)sc2c1C(c1c(Cl)c3c4c(nc(OC[C@@]56CCCN5C[C@H](F)C6)nc4c1F)N1C[C@H]4CC[C@H](N4)[C@H]1CO3)=CCC2` [Compound I-25, 2-amino-4-((5aS,6S,9R)-3-chloro-1-fluoro-13-(((2R,7aS)-2-fluorohexahydro-1H-pyrrolizin-7a-yl)methoxy)-5a,6,7,8,9,10-hexahydro-5H-6,9-epiminoazepino[2′,1′:3,4][1,4]oxazepino[5,6,7-de]quinazolin-2-yl)-6,7-dihydrobenzo[b]thiophene-3-carbonitrile ditrifluoroacetate], for which the half-inhibitory concentration (IC50) in assay [1] was found to be 12 nM; in assay [3] (setting [7]) it was 25.8 nM.

Turning to `C#Cc1c(F)ccc2cc(O)cc(-c3ncc4c(N5CC6CCC(C5)N6)nc(OC[C@@]56CCCN5C[C@H](F)C6)nc4c3F)c12` [Ref. A, MRTX1133, reference compound], in assay [5] (3 mg/kg i.p. twice a day), the “Tumor volume (11 days, mm^3)” value was 139.25 ± 17.31 mm^3; the “Tumor volume (21 days, mm^3)” value stood at 137.35 ± 18.79 mm^3; the “T/C (%)” value is 30.3%; the “Tumor regression rate (%)” value is listed as −1.4%. Besides, in assay [5] (10 mg/kg i.p. twice a day), the “Tumor volume (11 days, mm^3)” value is given as 139.90 ± 20.43 mm^3; the “Tumor volume (21 days, mm^3)” value stood at 79.77 ± 13.97 mm^3; the “T/C (%)” value was 17.6%; the “Tumor regression rate (%)” value was −43.0%.
